This is an account of results in US20100234832A1, “METHOD FOR VASCULAR TREATMENT” (priority 2009, published 2010).

In the data set the test system is femoral nerve. Put plainly: Femoral nerve block with lidocaine injected under echographic/ultrasound control. Type of data set: in vivo, human. The method, then: To accomplish femoral nerve block, an appropriate amount of local anesthetic is injected in the vicinity of femoral nerve close to the femoral artery under ultrasound control. After anesthesia takes effect, a needle is inserted through the skin into the vein to be treated and an optical fiber is introduced inside it. A typical procedure to carry out this task is to insert a guide wire inside the vein through needle's lumen, after the anesthesia has been introduced and takes effect. Once the guide wire is inserted, a dilator is used to slightly increase the size of the punction made onto the skin, in order to accomplish an easy catheter insertion. After catheter is inserted, guide wire is extracted and optical fiber is inserted through the catheter inside the vein and is advanced to the desired start position.
A main objective of this femoral block is to achieve sensory nerve function for blockage only, thus the least amount of lidocaine used yields the least probability for motor function to be affected. […] As a consequence, there is some minimal amount needed, which might differ by patient and procedure for an adequate and complete sensory block.
Lidocaine solutions much above 0.5% are thus not preferred, as the likelihood of concomitant loss of motor control along with the desired sensory blockage becomes too great, rendering patient recovery period longer. Concentration of other local anesthetics, with differing activity, would have a somewhat different effective range of preferred use.
A safe and effective femoral block procedure is achieved by sequentially carrying out the following steps: • 1. Attach monitors and if necessary give light sedation. • 2. Put patient in supine position with the operative leg slightly abducted. • 3. Prepare the groin. • 4. Place a transducer with the appropriate frequency range (10-12 MHz) along the inguinal crease. If the femoral artery and nerve are deep (>4 cm), use a 7 MHz transducer. • 5. Optimize machine imaging capability; select appropriate depth of e d (usually within 1-3 cm), focus range and gain. • 6. Identify the femoral artery. […]

On to `CCN(CC)CC(=O)Nc1c(C)cccc1C` [lidocaine], for which the “anesthetic effect (sensory femoral nerve block)” value (0.1% lidocaine, femoral block) is recorded as “functioned well”. For the same compound, the motor function blockage entry (20 ml of 1% lidocaine, femoral block) is “also blocked motor function”. In addition, for the setting “20 ml of lidocaine, concentration 0.1% to 0.5%, injected under echographic control”, the femoral block result is on record as “accomplish the femoral block”.
